This assay has as its system Human immunodeficiency virus 1. Description: Inhibition of HIV-1 P24 production. The assay is classed as functional, organism-based.
[1] abbreviates: read-out: Log 1/EC50 (converted).

Consider 20 molecules from ChEMBL document CHEMBL1127631, “Three-dimensional structure-activity analysis of a series of porphyrin derivatives with anti-HIV-1 activity targeted to the V3 loop of the gp120 envelope glycoprotein of the human immunodeficiency virus type 1” (J Med Chem, 1994).

Take `C=Cc1c(C)c2cc3[nH]c(cc4nc(cc5nc(cc1[nH]2)C(C)=C5CCC(=O)OC)C(CCC(=O)OC)=C4C)c(C)c3C=C`: the EC50 runs as follows: (Human immunodeficiency virus 1) 67.9 µM; under setting [1], 67.6 µM.
As to `CC1=C(C(O)CO)c2cc3nc(cc4[nH]c(cc5[nH]c(cc1n2)c(C)c5CCC(=O)O)c(CCC(=O)O)c4C)C(C(O)CO)=C3C` (stereo unspecified), the EC50 is, setting by setting: (Human immunodeficiency virus 1) 54.4 µM; under setting [1], 55 µM.
For `O=C(O)c1ccc(/C2=C3\C=CC(=N3)/C(c3ccc(Cl)cc3)=C3/C=CC(=N3)/C(c3ccc(C(=O)O)cc3)=c3/cc/c([nH]3)=C(\c3ccc(C(=O)O)cc3)C3C=CC2N3)cc1` (stereo unspecified), the EC50 reads like this: (Human immunodeficiency virus 1) 0.758 µM; under setting [1], 1.32 µM.
The corresponding values for `Cc1ccc(/C2=C3\C=CC(=N3)/C(c3ccc(C(=O)O)cc3)=c3/cc/c([nH]3)=C(\c3ccc(C)cc3)C3C=CC(N3)/C(c3ccc(C)cc3)=C3/C=CC2=N3)cc1` (stereo unspecified) are 14.7 µM and 14.8 µM.
The corresponding values for `NC(=O)c1ccc(/C2=C3\C=CC(=N3)/C(c3ccc(C(N)=O)cc3)=c3/cc/c([nH]3)=C(\c3ccc(C(N)=O)cc3)C3C=CC(N3)/C(c3ccc(C(N)=O)cc3)=C3/C=CC2=N3)cc1` (stereo unspecified) are 1.07 µM and 1.07 µM.
The corresponding values for `C=CC1=C(C)c2cc3nc(cc4[nH]c(cc5[nH]c(cc1n2)c(C)c5CO)c(C)c4CCC(=O)O)C(CCC(=O)O)=C3C` are 5.59 µM and 5.62 µM.
Turning to `C=Cc1c(C)c2cc3[nH]c(cc4nc(cc5nc(cc1[nH]2)C(C)=C5CCC(=O)O)C(CCC(=O)O)=C4C)c(C)c3C(C)O` (stereo unspecified), the EC50 is 6.16 µM (Human immunodeficiency virus 1) and 6.17 µM under setting [1].
For `C1=C/C2=C(\c3ccccc3)C3C=CC(N3)/C(c3ccccc3)=c3/cc/c([nH]3)=C(\c3ccccc3)C3=N/C(=C(/c4ccccc4)C1=N2)C=C3` (stereo unspecified), the EC50 is 54.7 µM (Human immunodeficiency virus 1) and 55 µM under setting [1].
On the same counts, the results for `CC1=C(CCC(=O)O)c2cc3[nH]c(cc4[nH]c(cc5nc(cc1n2)C(CCC(=O)O)=C5CC(=O)O)c(CCC(=O)O)c4C)c(CCC(=O)O)c3CC(=O)O` are 20.7 µM and 20.9 µM.
For the setting “Human immunodeficiency virus 1”, `O=C(O)c1ccc(/C2=C3\C=CC(=N3)/C(c3ccccc3)=c3/cc/c([nH]3)=C(\c3ccc(C(=O)O)cc3)C3C=CC(N3)/C(c3ccc(C(=O)O)cc3)=C3/C=CC2=N3)cc1` (stereo unspecified) had an EC50 of 0.612 µM.
With `CN1C2C=CC1/C(c1ccc(C(=O)O)cc1)=c1/cc/c([nH]1)=C(\c1ccc(C(=O)O)cc1)C1=N/C(=C(/c3ccc(C(=O)O)cc3)C3=N/C(=C\2c2ccc(C(=O)O)cc2)C=C3)C=C1` (stereo unspecified), the EC50 (Human immunodeficiency virus 1) came out at 0.774 µM and the EC50 under setting [1] was 1.29 µM.
The corresponding values for `C=CC1=C(C)c2cc3nc(cc4[nH]c(cc5c(C=C)c(C)c(cc1n2)n5C)c(C)c4CCC(=O)O)C(CCC(=O)O)=C3C` are 1.03 µM and 1.02 µM.
The molecule `O=C(O)c1ccc(/C2=C3\C=CC(=N3)/C(c3ccc(C(=O)O)cc3)=c3/cc/c([nH]3)=C(\c3ccc(C(=O)O)cc3)C3C=CC(N3)/C(c3ccc(C(=O)O)cc3)=C3/C=CC2=N3)cc1` (stereo unspecified) yielded an EC50 (Human immunodeficiency virus 1) of 0.63 µM.
As to `O=C(O)CCC1=C(CC(=O)O)c2cc3nc(cc4[nH]c(cc5[nH]c(cc1n2)c(CCC(=O)O)c5CC(=O)O)c(CC(=O)O)c4CCC(=O)O)C(CC(=O)O)=C3CCC(=O)O`, the EC50 was 3.02 µM (Human immunodeficiency virus 1) and 3.02 µM under setting [1].
Regarding `O=C(O)CCC1=C(CC(=O)O)c2cc3nc(cc4[nH]c(cc5[nH]c(cc1n2)c(CC(=O)O)c5CCC(=O)O)c(CC(=O)O)c4CCC(=O)O)C(CC(=O)O)=C3CCC(=O)O`, the EC50 reads like this: (Human immunodeficiency virus 1) 9.04 µM; under setting [1], 9.12 µM.
With `CC1=C(CCC(=O)O)c2cc3nc(cc4[nH]c(cc5[nH]c(cc1n2)c(CCC(=O)O)c5CC(=O)O)c(CCC(=O)O)c4C)C(CCC(=O)O)=C3C`, the EC50 by setting is: (Human immunodeficiency virus 1) 43.3 µM; under setting [1], 43.7 µM.
The corresponding values for `CC1=C(CCC(=O)O)c2cc3[nH]c(cc4[nH]c(cc5nc(cc1n2)C(CCC(=O)O)=C5CC(=O)O)c(CCC(=O)O)c4CC(=O)O)c(CCC(=O)O)c3CC(=O)O` are 10.7 µM and 10.7 µM.
`O=C(O)C1=CC(=C(c2ccc(O)c(C(=O)O)c2)c2ccc(O)c(C(=O)O)c2)C=CC1=O` [AURINTRICARBOXYLIC ACID] had an EC50 (Human immunodeficiency virus 1) of 28.4 µM.
Consider `C=CC1=C(C)c2cc3[nH]c(cc4nc(cc5[nH]c(cc1n2)c(C)c5CCC(=O)O)C(CCC(=O)O)=C4C)c(C)c3C=C` [PROTOPORPHYRIN], for which the EC50 (Human immunodeficiency virus 1) is 2.17 µM and the EC50 under setting [1] was 2.19 µM.
The molecule HEMIN returned an EC50 of 35.3 µM.
